In article PMC8232621, “Antimicrobial Activity of a Library of Thioxanthones and Their Potential as Efflux Pump Inhibitors” (Pharmaceuticals, 2021):

Test system: the used strains
Experiment: Antibacterial activity (MIC), strains not specified
Format: cell-based
Details: concentrations tested; results not shown
Procedure: The minimum inhibitory concentration (MIC) for each compound was determined by broth microdilution method in a 96-well plate according to the Clinical and Laboratory Standard Institute (CLSI) guidelines. The medium used was MHB II. […] DMSO was used in subinhibitory concentrations (1% v/v). The MIC was determined by visual inspection.

NS(=O)(=O)c1ccc(C(=O)O)cc1 [4-sulfamoylbenzoic acid]
MIC: did not display an observable MIC
